The results in this text go back to the Kinase Knowledgebase extract (Sharma et al. 2016).

The target of one test is CDK2 (UniProt P24941). Description: Enzyme Assay.
In another test the target is EGFR (UniProt P00533).
Chain of EGFR (P00533 whole entry, looked up): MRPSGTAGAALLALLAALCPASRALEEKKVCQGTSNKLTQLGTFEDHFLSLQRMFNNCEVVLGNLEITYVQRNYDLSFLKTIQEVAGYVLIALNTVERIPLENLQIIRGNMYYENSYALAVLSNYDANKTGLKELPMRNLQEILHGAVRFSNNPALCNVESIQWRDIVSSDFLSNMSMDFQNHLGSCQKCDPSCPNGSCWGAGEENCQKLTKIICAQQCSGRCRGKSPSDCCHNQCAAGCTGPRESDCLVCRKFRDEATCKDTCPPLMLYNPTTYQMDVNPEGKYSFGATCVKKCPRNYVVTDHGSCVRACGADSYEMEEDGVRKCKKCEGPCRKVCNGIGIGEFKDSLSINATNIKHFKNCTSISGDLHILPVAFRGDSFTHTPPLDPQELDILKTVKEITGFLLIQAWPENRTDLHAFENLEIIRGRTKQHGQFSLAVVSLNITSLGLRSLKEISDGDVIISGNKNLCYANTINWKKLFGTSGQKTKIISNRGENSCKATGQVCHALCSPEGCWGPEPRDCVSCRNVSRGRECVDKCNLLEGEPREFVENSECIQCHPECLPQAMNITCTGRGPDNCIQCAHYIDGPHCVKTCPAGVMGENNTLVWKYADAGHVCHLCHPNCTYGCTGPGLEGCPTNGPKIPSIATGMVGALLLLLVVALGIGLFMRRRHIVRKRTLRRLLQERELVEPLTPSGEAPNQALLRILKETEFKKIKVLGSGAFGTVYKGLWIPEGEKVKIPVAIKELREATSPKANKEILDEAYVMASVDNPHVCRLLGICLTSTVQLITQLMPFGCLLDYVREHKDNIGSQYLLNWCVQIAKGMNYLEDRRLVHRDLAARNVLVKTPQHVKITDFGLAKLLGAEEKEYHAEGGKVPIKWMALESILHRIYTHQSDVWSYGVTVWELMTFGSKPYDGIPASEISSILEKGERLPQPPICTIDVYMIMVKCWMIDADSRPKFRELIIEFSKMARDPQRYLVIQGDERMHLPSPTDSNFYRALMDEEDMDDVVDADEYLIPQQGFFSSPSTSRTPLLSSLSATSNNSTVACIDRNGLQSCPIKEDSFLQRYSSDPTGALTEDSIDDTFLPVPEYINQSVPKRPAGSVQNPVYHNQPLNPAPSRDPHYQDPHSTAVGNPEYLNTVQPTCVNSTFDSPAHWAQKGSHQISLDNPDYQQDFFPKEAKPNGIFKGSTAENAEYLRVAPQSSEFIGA

Regarding `O=C1Nc2cccc(C3CCNCC3)c2/C1=C/c1[nH]cc2c1CCNC2=O`, the IC50 on CDK2 turned out to be 0.06 µM. That is a double-digit nanomolar value.

As to `Cc1nc[nH]c1/C=C1\C(=O)Nc2cccc(-c3ccncc3)c21`, the IC50 at CDK2 was 0.03 µM; against EGFR, above 20 µM. At EGFR, `Cc1cc(C(=O)O)[nH]c1/C=C1\C(=O)Nc2cccc(C3CCNCC3)c21` displayed an IC50 above 20 µM. `O=C1Nc2cccc(C3CCNCC3)c2/C1=C/c1ccc(N2CCOCC2)cc1` displayed an IC50 against EGFR above 20 µM. On to `Cc1cc(CCC(=O)O)c(/C=C2\C(=O)Nc3cccc(-c4ccncc4)c32)[nH]1`, for which the IC50 at EGFR is above 20 µM. On the same count and under the same terms, to `Cc1[nH]c(/C=C2\C(=O)Nc3cccc(-c4ccncc4)c32)c(C)c1CCC(=O)O` belongs above 20 µM; to `O=C1Nc2cccc(C3CCNCC3)c2/C1=C/c1[nH]cc(C(=O)O)c1CCO`, above 20 µM. With `CCN(CC)CCNC(=O)c1c(C)[nH]c(/C=C2\C(=O)Nc3cccc(-c4cncc(C(=O)O)c4)c32)c1C`, the IC50 on EGFR is above 20 µM.

`Cc1[nH]c(/C=C2\C(=O)Nc3cccc(-c4ccc(N)nc4)c32)c(C)c1C(=O)N1CCN(C)CC1`: the 50% inhibitory concentration (IC50) against EGFR is above 20 µM. In turn, `O=C1Nc2cccc(C3CCNCC3)c2/C1=C/c1[nH]c2c(c1CCCN1CCOCC1)CCCC2` came in with an IC50 at EGFR above 20 µM.

Take `Cc1c(C(=O)N2CCOCC2)c[nH]c1/C=C1\C(=O)Nc2cccc(C3CCNCC3)c21`: the figures for the concentration for half-maximal inhibition (IC50) at CDK2 and on EGFR were 0.02 µM and above 20 µM, respectively.

Consider `CCOC(=O)c1[nH]c(/C=C2\C(=O)Nc3cccc(C4CCNCC4)c32)c(CCC(=O)O)c1C`, for which, at EGFR, the IC50 is above 20 µM.

As for `Cc1[nH]c(/C=C2\C(=O)Nc3cccc(-c4nccs4)c32)c(C)c1C(=O)N1CCN(C)CC1`, the IC50 against EGFR was above 20 µM. In the case of `Cc1[nH]c(/C=C2\C(=O)Nc3cccc(-c4cncnc4)c32)c(C)c1C(=O)N1CCN(C)CC1`, the IC50 against EGFR was above 20 µM. On EGFR, `CCOC(=O)c1c(C)[nH]c(/C=C2\C(=O)Nc3cccc(-c4cncnc4)c32)c1CCCN1CCN(C)CC1` displayed a concentration for half-maximal inhibition (IC50) above 20 µM.

In the case of `O=C1Nc2cccc(-c3ccncc3)c2/C1=C/c1cc2ccccc2[nH]1`, the IC50 against EGFR stood at 16.3 µM. As for `O=C1Nc2cccc(C3CCNCC3)c2/C1=C/c1[nH]cc2c1CCOC2=O`, the figures for the IC50 against CDK2 and against EGFR were 0.009 µM and above 20 µM, respectively.

`Cc1cc(C)c(/C=C2\C(=O)Nc3cccc(-c4ccncc4)c32)[nH]1`: on EGFR, the IC50 was above 20 µM. Compound `CCOC(=O)c1c(C)[nH]c(/C=C2\C(=O)Nc3cccc(-c4ccncc4)c32)c1CCC(=O)O` yielded an IC50 against EGFR above 20 µM. The compound `CCN(CC)CCNC(=O)c1c(C)[nH]c(/C=C2\C(=O)Nc3cccc(-c4ccncc4)c32)c1C` returned a half-maximal inhibitory concentration (IC50) on EGFR above 20 µM. On the same count and under the same terms, to `Cc1[nH]c(/C=C2\C(=O)Nc3cccc(C4CCNCC4)c32)c(C)c1CC(=O)O` belongs above 20 µM. Take `O=C1Nc2cccc(C3CCNCC3)c2/C1=C/c1cc2cc(OCCN3CCOCC3)ccc2[nH]1`: the IC50 against CDK2 is 1.96 µM; against EGFR it was 19.1 µM.

For `CCc1cc(CCC(=O)O)c(/C=C2\C(=O)Nc3cccc(C4CCNCC4)c32)[nH]1`, the 50% inhibitory concentration (IC50) against EGFR is above 20 µM. Compound `CCOC(=O)c1c(C)[nH]c(/C=C2\C(=O)Nc3cccc(-c4cccnc4)c32)c1CCCN1CCN(C)CC1` registered an IC50 against EGFR above 20 µM. The compound `O=C1Nc2cccc(C3CCNCC3)c2/C1=C/c1cc2c([nH]1)CCCC2` registered an IC50 at EGFR above 20 µM. Regarding `CCOC(=O)c1c(C)[nH]c(/C=C2\C(=O)Nc3cccc(-c4ccccn4)c32)c1CCCN1CCN(C)CC1`, on EGFR, the IC50 was above 20 µM. On the same count and under the same terms, to `CCOC(=O)c1c(C)[nH]c(/C=C2\C(=O)Nc3cccc(-c4nccs4)c32)c1CCCN1CCN(C)CC1` belongs above 20 µM. With `Cc1[nH]c(/C=C2\C(=O)Nc3cccc(C4CCNCC4)c32)c(C)c1CCC(=O)O`, the IC50 against EGFR was above 20 µM. Turning to `CCOC(=O)c1[nH]c(/C=C2\C(=O)Nc3cccc(C4CCNCC4)c32)c2c1CCCC2`, the IC50 against EGFR was 14.7 µM. In turn, `Cc1[nH]c(/C=C2\C(=O)Nc3cccc(-c4ccncc4)c32)c(C)c1C(=O)N1CCN(C)CC1` returned an IC50 at EGFR above 20 µM. `O=C1Nc2cccc(-c3ccncc3)c2/C1=C/c1[nH]c2c(c1CCCN1CCOCC1)CCCC2` returned an IC50 against EGFR above 20 µM. `CCc1cc(CCC(=O)O)c(/C=C2\C(=O)Nc3cccc(-c4ccncc4)c32)[nH]1` showed an IC50 at EGFR above 20 µM.

On to `O=C1Nc2cccc(-c3ccncc3)c2/C1=C/c1[nH]cc2c1CCOC2=O`, for which the IC50 is 0.08 µM at CDK2 and above 20 µM against EGFR. Turning to `CCOC(=O)c1c(C)[nH]c(/C=C2\C(=O)Nc3cccc(-c4ccc(N)nc4)c32)c1CCCN1CCN(C)CC1`, the IC50 on EGFR is above 20 µM. As to `Cc1nc[nH]c1/C=C1\C(=O)Nc2cccc(C3CCNCC3)c21`, the IC50 was 0.01 µM against CDK2 and above 20 µM on EGFR. With `CN1CCc2c(c[nH]c2/C=C2\C(=O)Nc3cccc(C4CCNCC4)c32)C1=O`, the IC50 against CDK2 turned out to be 0.26 µM. For `Cc1[nH]c(/C=C2\C(=O)Nc3cccc(-c4ccncc4)c32)c(C)c1CC(=O)O`, the half-inhibitory concentration (IC50) against EGFR was above 20 µM.

Turning to `Cc1c(C(=O)N2CCCCC2)c[nH]c1/C=C1\C(=O)Nc2cccc(-c3ccncc3)c21`, the IC50 at CDK2 was 0.75 µM; against EGFR, above 20 µM. On EGFR, `O=C(O)CCc1c(/C=C2\C(=O)Nc3cccc(-c4ccncc4)c32)[nH]c2c1CCCC2` displayed a half-inhibitory concentration (IC50) above 20 µM.

Turning to `Cc1cc(C(=O)O)c(/C=C2\C(=O)Nc3cccc(-c4ccncc4)c32)[nH]1`, the IC50 on EGFR is above 20 µM. Turning to `Cc1[nH]c(/C=C2\C(=O)Nc3cccc(-c4cncc(C(=O)O)c4)c32)c(C)c1C(=O)N1CCN(C)CC1`, the IC50 on EGFR is above 20 µM.

Turning to `CCOC(=O)c1c(C)[nH]c(/C=C2\C(=O)Nc3cccc(-c4cncc(C(=O)O)c4)c32)c1CCCN1CCN(C)CC1`, the IC50 against EGFR is above 20 µM. Compound `Cc1cc(C(=O)N2CCN(C)CC2)[nH]c1/C=C1\C(=O)Nc2cccc(C3CCNCC3)c21` returned an IC50 against EGFR above 20 µM.

For the compound `Cc1ccc(/C=C2\C(=O)Nc3cccc(C4CCNCC4)c32)s1`, on EGFR, the IC50 is above 20 µM. In the case of `Cc1[nH]c(/C=C2\C(=O)Nc3cccc(-c4cccnc4)c32)c(C)c1C(=O)N1CCN(C)CC1`, the IC50 against EGFR is above 20 µM. Regarding `Cc1c(C(=O)N2CCCCC2)c[nH]c1/C=C1\C(=O)Nc2cccc(C3CCNCC3)c21`, the IC50 was 0.02 µM at CDK2 and above 20 µM against EGFR. With `O=C1Nc2cccc(C3CCNCC3)c2/C1=C/c1cc2ccccc2[nH]1`, the IC50 at EGFR was above 20 µM. For `Cc1[nH]c(/C=C2\C(=O)Nc3cccc(-c4ccccn4)c32)c(C)c1C(=O)N1CCN(C)CC1`, on EGFR, the IC50 was above 20 µM. Same read-out and setting: to `Cc1cc(C(=O)O)[nH]c1/C=C1\C(=O)Nc2cccc(-c3ccncc3)c21` belongs above 20 µM. `CCN(CC)CCNC(=O)c1c(C)[nH]c(/C=C2\C(=O)Nc3cccc(C4CCNCC4)c32)c1C` displayed an IC50 against EGFR above 20 µM. Regarding `Cc1[nH]c(/C=C2\C(=O)Nc3cccc(C4CCNCC4)c32)c(-c2ccccc2)c1C(=O)Nc1ccncc1`, at EGFR, the half-inhibitory concentration (IC50) is above 20 µM. In the case of `O=C1Nc2cccc(-c3ccncc3)c2/C1=C/c1cc2cc(OCCN3CCOCC3)ccc2[nH]1`, the IC50 on EGFR was determined as 17.9 µM. On to `Cc1cc(C(=O)O)c(/C=C2\C(=O)Nc3cccc(C4CCNCC4)c32)[nH]1`, for which the IC50 at EGFR is above 20 µM.
